# Assay results reported in patent publication US20040105875A1, “Composition containing a secondary or tertiary carbonyl amine, method of use thereof, compounds” (L'OREAL, priority 2002, published 2004).
# Tests used:
# [1] = test system: normal human fibroblasts inserted into a fibrillar collagen gel (dermal equivalent); test: Contraction of dermal equivalents (fibroblasts in fibrillar collagen gel), dermo-decontracting effect; format: cell-based
# Description: This model thus makes it possible to evaluate the relaxing potential of compounds by measuring the delay in contraction of the treated dermal equivalents relative to the control dermal equivalents prepared under the same conditions. Verapamil is used as reference molecule.
# Dermal fibroblasts are isolated from human skin explants and cultured in MEM medium+additives (10% foetal calf serum, 1% glutamine, 1% non-essential amino acids, 1% sodium pyruvate, 1% Fungizone and 1% penicillin/streptomycin). The collagen used is obtained from a commercial solution. It is extracted from rat tails and stored in acidic medium at +4° C. It is dialysed beforehand against successive baths of acetic acid of decreasing concentration.
# The mixture is homogenized cautiously, so as to obtain a distribution of the cells in the collagen matrix that is as uniform as possible. It is then distributed in each well of a 12-well culture dish at a rate of 2 ml/well. The final cell concentration is 3×10^4 cells/dermal equivalent with a final collagen concentration of 1 mg/ml.
# The culture dishes are incubated at 37° C./5% CO2 so as to obtain polymerization and gelation of the collagen. The dermal equivalents thus treated adhere to the dishes and the cells are subjected to mechanical stresses that potentiate their contractile properties. The cells thus cultured in 3D end up under conditions close to those of the dermis. After culturing for three days under these “attached” conditions, the dermal equivalents are detached from their support by gentle agitation. […]
# To do this, a digital image is acquired for each treated or untreated dermal equivalent using a camera (CCD camera—Iris Sony DXC -107P) and on each of them, the small (D1) and large (D2) diameters of the dermal equivalent are measured by computer. The surface area is calculated according to the formula for calculating an ellipse: S=(D1×D2×π)/4. […] The percentage of contraction is calculated according to the formula below, in which Si represents the surface area of the dermal equivalent at Ti: […]
# [2] = test system: fibroblasts; test: Cytotoxicity check in the dermal equivalent test; format: cell-based, human
# [3] = test system: calcium flux (release of Ca2+) in SK-N-SH nerve cells; test: Inhibition of calcium flux (IC50Ca2+) on nerve cells SK-N-SH; format: cell-based; conditions: Homo sapiens, 50% inhibitory concentration for the release of Ca2+
# Description: (§1) In order for a substance to be recognized as a calcium-channel inhibitor, it must be able to reduce the intracellular calcium concentration or reduce the binding of calcium to intracellular proteins such as, for example, calmodulin, as is described especially by Galizzi, J. P. et al., J. Biol. Chem. 1987, 262 p. 6947; by Y. Okamiya et al., Eur. J. Pharmacol. 1991, 205, p. 49; by J. A. Wagner et al., J. Neurosci. 1988, 8, p. 3354; by H. R. Lee et al., Life Sci. 1984, 35, p. 721; by Schoemaker H. and Lauger S. Eur. J. Pharmacol. 1985, 111, p. 273 or I. J. Reynolds et al., J. Pharmacol. Exp. Ther. 1986, 237, p. 731.
# (§2) According to the protocol indicated in these documents, the Assignee determined the IC50Ca2+ of inhibition of calcium flux for compounds (Ia), (IIa) to (IId), (IIIa) and (IIIb), in comparison with verapamil. IC50Ca2+ represents the 50% inhibitory concentration for the release of Ca^2+.
# [4] = test system: calcium flux (release of Ca2+) in HDFa cells obtained from skin fibroblasts; test: Inhibition of calcium flux (IC50Ca2+) on cells obtained from skin fibroblasts HDFa; format: cell-based; conditions: 50% inhibitory concentration for the release of Ca2+
# Description: as §1, §2
Structure (SMILES),IC50 [3] [µM],IC50 [4] [µM],further results
CN(CCC(=O)c1ccccc1)CCC(=O)c1ccccc1.Cl [Compound (Ia)],36,–,"difference in the degree of contraction compared with control dermal equivalents ([1]; tested at 1 μm, after 4 days of contact with the fibroblasts): 25%; cytotoxicity as cause of the decontracting effect [2]: did not result from any cytotoxicity"
"CCCCCC(O)(CCCCC)CCN(CC)CCC(=O)c1ccccc1 [Compound (IId), 3-[ethyl(3-hydroxy-3-pentyloctyl)amino]-1-phenylpropan-1-one]",3,4,–
CCCCCCCN(C)CCC(=O)c1ccccc1 [Compound (IIb)],26,31,–
COc1cc(CNCCC(=O)c2ccccc2)ccc1O [Compound (IIIa)],41,30,–
CCCCCC(=O)CCN(CC)CCC(=O)c1ccccc1 [Compound (IIa)],29,41,–
COc1ccc(CCN(C)CCCC(C#N)(c2ccc(OC)c(OC)c2)C(C)C)cc1OC (stereo not drawn) [verapamil],–,–,"difference in the degree of contraction compared with control dermal equivalents ([1]; tested at 10 μM, same conditions (4 days of contact)): 32%"
CCCCCCCNCCC(=O)c1ccccc1 [Compound (IIc)],36,46,–
"CCN(CCCc1ccccc1)CCCc1ccccc1 [alverine, reference compound]",30,–,activity in the dermal equivalent contraction test ([1]; tested under the same conditions): no activity
COc1ccc(CCN(C)CCC(=O)c2ccccc2)cc1OC [Compound (IIIb)],14,6,–
